# Measured values published in patent US20130225583A1, “SUBSTITUTED AMINO-TRIAZOLYL PDE10 INHIBITORS” (priority 2010, published 2013).
# Biological target: T1, human PDE10A2 (Homo sapiens, UniProt Q9Y233)
# T1 construct: made in house; host or cells: AD293 cells, transiently transfected; The cytosolic supernatant of the lysate served as the enzyme
# Assay: PDE10 fluorescence polarization (IMAP FP) inhibition assay
# Format: biochemical
# Conditions: apparent inhibition constant; FAM-labeled cAMP 50 nM; lysate of AD293 cells transfected with human PDE10A2; room temperature; read-out: PDE10a Ki
# Method: The activity of the compounds in accordance with the present invention as PDE10 inhibitors may be readily determined without undue experimentation using a fluorescence polarization (FP) methodology that is well known in the art (Huang, W., et al., J. Biomol Screen, 2002, 7: 215).
# In a typical experiment the PDE 10 inhibitory activity of the compounds of the present invention was determined in accordance with the following experimental method. PDE 10A2 was amplified from human fetal brain cDNA (Clontech, Mountain View, Calif.) using a forward primer corresponding to nucleotides 56-77 of human PDE10A2 (Accession No. AF127480, Genbank Identifier 4894716), containing a Kozak consensus sequence, and a reverse primer corresponding to nucleotides 2406-2413 of human PDE10A2 (Accession No. AF127480, Genbank Identifier 4894716). Amplification with Easy-A polymerase (Stratagene, La Jolla, Calif.) was 95° C. for 2 minutes followed by thirty three cycles of 95° C. for 40 seconds, 55° C. for 30 seconds, and 72° C. for 2 minutes 48 seconds. Final extension was 72° C. for 7 minutes. The PCR product was TA cloned into pcDNA3.2-TOPO (Invitrogen, Carlsbad, Calif.) according to standard protocol. AD293 cells with 70-80% confluency were transiently transfected with human PDE10A2/pcDNA3.2-TOPO using Lipofectamine 2000 according to manufacturer specifications (Invitrogen, Carlsbad, Calif.). Cells were harvested 48 hours post-transfection and lysed by sonication (setting 3, 10×5 sec pulses) in a buffer containing 20 mM HEPES, 1 mM EDTA and protease inhibitor cocktail (Roche). Lysate was collected by centrifugation at 75,000×g for 20 minutes. Supernatant containing the cytoplasmic fraction was used for evaluation of PDE10A2 activity. The fluorescence polarization assay for cyclic nucleotide phosphodiesterases was performed using an IMAP® FP kit supplied by Molecular Devices, Sunnyvale, Calif. (product # R8139). IMAP® technology has been applied previously to phosphodiesterase assays (Huang, W., et al., J. Biomol Screen, 2002, 7: 215). Assays were performed at room temperature in 384-well microtiter plates with an incubation volume of 20.2 μL. Solutions of test compounds were prepared in DMSO and serially diluted with DMSO to yield 8 μL of each of 10 solutions differing by 3-fold in concentration, at 32 serial dilutions per plate. 100% inhibition is determined using a known PDE 10 inhibitor, which can be any compound that is present at 5,000 times its Ki value in the assay described as follows, such as papaverine (see Siuciak, et al. Neuropharmacology (2006) 51:386-396; Becker, et al. Behav Brain Res (2008) 186(2):155-60; Threlfell, et al., J Pharmacol Exp Ther (2009) 328(3):785-795), 2-{4-[pyridin-4-yl-1-(2,2,2-trifluoroethyl)-1H-pyrazol-3-yl]phenoxymethyl}quinoline succinic acid or 2-[4-(1-methyl-4-pyridin-4-yl-1H-pyrazol-3-yl)-phenoxymethyl]quinoline succinic acid (see Schmidt, et al. J Pharmacol Exp Ther (2008) 325:681-690; Threlfell, et al., J Pharmacol Exp Ther (2009) 328(3): 785-795). 0% of inhibition is determined by using DMSO (1% final concentrations). A Labcyte Echo 555 (Labcyte, Sunnyvale, Calif.) is used to dispense 200 nL from each well of the titration plate to the 384 well assay plate. A solution of enzyme ( 1/7000 dilution from aliquots; sufficient to produce 20% substrate conversion) and a separate solution of FAM-labeled cAMP PDE from Molecular Devices (product # R7506), at a final concentration of 50 nM are made in the assay buffer (10 mM Tris HCl, pH 7.2, 10 mM MgCl2, 0.05% NaN3 0.01% Tween-20, and 1 mM DTT). The enzyme is added to the assay plates by the addition of 10 μL of enzyme solution to each well, shaken to mix and incubated at room temperature for 60 minutes. The substrate is then added to the assay plates by the addition of 10 μL of substrate solution to each well, shaken to mix, and incubated at room temperature for 60 minutes. […]
# T1 sequence (Q9Y233 267-1055): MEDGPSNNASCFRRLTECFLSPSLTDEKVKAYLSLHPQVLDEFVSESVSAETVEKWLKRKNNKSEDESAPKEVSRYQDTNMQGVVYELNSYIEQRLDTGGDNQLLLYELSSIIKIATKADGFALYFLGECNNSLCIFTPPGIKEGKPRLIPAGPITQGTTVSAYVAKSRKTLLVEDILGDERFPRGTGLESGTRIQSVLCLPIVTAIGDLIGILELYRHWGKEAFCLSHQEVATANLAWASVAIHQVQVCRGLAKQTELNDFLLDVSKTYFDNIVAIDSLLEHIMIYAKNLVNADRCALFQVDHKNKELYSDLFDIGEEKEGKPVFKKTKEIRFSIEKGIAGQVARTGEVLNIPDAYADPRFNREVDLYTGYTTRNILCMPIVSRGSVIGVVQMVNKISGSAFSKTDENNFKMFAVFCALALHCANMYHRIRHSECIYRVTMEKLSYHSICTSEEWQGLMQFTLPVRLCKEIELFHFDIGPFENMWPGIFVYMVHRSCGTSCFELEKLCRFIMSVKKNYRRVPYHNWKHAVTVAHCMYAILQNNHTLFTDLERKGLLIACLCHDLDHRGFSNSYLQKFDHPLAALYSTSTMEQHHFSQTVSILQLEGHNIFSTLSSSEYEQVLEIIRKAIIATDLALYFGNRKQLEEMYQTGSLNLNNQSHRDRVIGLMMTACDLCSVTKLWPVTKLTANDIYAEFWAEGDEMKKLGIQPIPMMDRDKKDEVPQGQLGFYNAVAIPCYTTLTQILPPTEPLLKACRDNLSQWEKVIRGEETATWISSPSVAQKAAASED
row,Compound,Ki
1,"COc1ccc(CNc2nc(Cc3ccc(OC)c(OC)c3)n(-c3cc(Oc4ccccn4)nc(C)n3)n2)cc1 [1-80, 5-(3,4-dimethoxybenzyl)-N-(4-methoxybenzyl)-1-(2-methyl-6-(pyridin-2-yloxy)pyrimidin-4-yl)-1H-1,2,4-triazol-3-amine]",490 nM
2,"COc1ccc(CNc2nc(Cc3ccc(OC)c(OC)c3)n(-c3cc(Oc4cccnc4)nc(C)n3)n2)cc1 [1-77, 5-(3,4-dimethoxybenzyl)-N-(4-methoxybenzyl)-1-(2-methyl-6-(pyridin-3-yloxy)pyrimidin-4-yl)-1H-1,2,4-triazol-3-amine]",1000 nM
3,"COc1ccc(Cc2nc(N)nn2-c2cc(=O)n(Cc3ccc4ccccc4n3)cn2)cc1OC [1-75, 6-(3-amino-5-(3,4-dimethoxybenzyl)-1H-1,2,4-triazol-1-yl)-3-(quinolin-2-ylmethyl)pyrimidin-4(3H)-one]",64 nM
4,"COc1ccc(CNc2nc(Cc3ccc(OC)c(OC)c3)n(-c3ccccc3)n2)cc1 [1-10, 5-(3,4-dimethoxybenzyl)-N-(4-methoxybenzyl)-1-phenyl-1H-1,2,4-triazol-3-amine]",146 nM
